Assay results taken from US20170119683A1, “BIOPOLYMER-ENCAPSULATED GLYCOSYL TRANSFERASE INHIBITOR COMPOSITIONS AND METHODS FOR TREATING DIABETES AND CARDIAC INDICATIONS” (The Johns Hopkins University, priority 2014, published 2017).
Entries after “also recorded” stand apart in the source; their conditions may differ.

What was measured:
[1] = native, not encapsulated
adipocytes = experiment: TNF induced insulin resistance in adipocytes; format: cell-based; details: chronic exposure to low levels of TNF
Description: Additionally, adipocytes were made insulin resistant by chronic exposure to low levels of tumor necrosis factor (TNF). […] This latter patient population is estimated at 10 million in the US alone.

Apolipoprotein E-/- mice = experiment: Example 6: ox-LDL, GalT-V and amyloid-β (ELISA, Western) in ApoE-/- mice fed HFHC diet; format: in vivo
Experimental: Testing of the impact of D-PDMP in a mouse AD model and quantification of biomarkers in such studies was performed in the following manner. […] These mice were fed either a normal diet (control) or a high-fat high-cholesterol (HFHC) diet. While a subset of the mice fed the high-fat diet was retained as a placebo group, others were treated with 5 mg/kg (mpk) or 10 mpk of the D-PDMP drug. After euthanizing these animals, tissue and blood samples were stored for further biochemical analysis. For the quantification of the biomarkers, […] (ELISA) was used. For the measurement of ox-LDL, mouse serum was coated onto the bottom of a well. […] A secondary antibody was administered to that attached specifically to the primary antibody. This secondary antibody presented an attached reporter, allowing amounts of ox-LDL could be quantified. A substrate was bound to the reporter and fluoresced. […] ELISA was also employed for quantifying levels of GalT-V and amyloid-β, using different target-specific antibodies.

[2] = in vivo; cited from earlier work
[3] = system: cultured human arterial cell monolayer; experiment: in vitro model of wounding in cultured arterial cell monolayer; format: cell-based
[4] = in vivo
[5] = system: apoE -/- mice fed a high fat and high cholesterol (HFHC) diet; experiment: aortic histopathology and ultrasound imaging, atherosclerosis in apoE -/- mice fed HFHC diet; format: in vivo; details: FIG. 2B
[6] = 5 mpk and 10 mpk by injection, not biopolymer-encapsulated

Structure (SMILES): CCCCCCCCCC(=O)N[C@H](CN1CCOCC1)[C@H](O)c1ccccc1.Cl [D-PDMP, D-threo-1-phenyl-2-decanoylamino-3-morpholino-1-propanol]
- residence time in the body of the mice [1]: about an hour
- TNF induced impairment in insulin signaling (adipocytes): reversed
- levels of GalT-V (Apolipoprotein E-/- mice; [6]): dose-dependently decreased; also recorded: decreased levels
- levels of ox-LDL (Apolipoprotein E-/- mice; [6]): dose-dependently decreased; also recorded: decreased levels
- amyloid-β levels (Apolipoprotein E-/- mice; 5 mpk and 10 mpk by injection, not biopolymer-encapsulated, brain tissue): dose-dependently decreased; also recorded: reduction
- levels of atherosclerosis and Alzheimer's disease biomarkers (Apolipoprotein E-/- mice; ApoE -/- model mice): markedly reduced
- half-life [2]: approximately 52 minutes
- wound healing [3]: facilitated healing
- toxicity [4]: no toxicity
- returning aortic intima-media thickness of the ascending aorta to control levels [5]: equally efficacious
